{"source": "paper PMC9234961", "about": "(Journal of Medicinal Chemistry, 2022)", "key": {"HT": {"tested_on": "HT", "test": "Cell proliferation assay (14 days), HT", "description": "(§2) Cells were seeded in 96-well culture plates at a density of 2500 cells/well in RPMI-1640 medium (Sigma-\n(§3) Aldrich) supplemented with 10% FBS (Gibco). Compounds were initially dispensed into 96-well U-bottom\n(§4) plates using an Echo 550 acoustic dispenser (Labcyte Inc.), then diluted in RPMI-1640 medium and\n(§5) transferred onto the cells. Cells were treated with 8 compound concentrations in duplicate, ranging from\n(§6) with compound for 14 days, with medium changes at days 3, 7 and 10 carried out as follows: fresh 96-well\n(§7) cell culture plates were prepared containing 100 µl medium plus compound at the assay concentrations\n(§8) (white plates were used on day 10 to optimise luminescence measurement). Assay plates containing cells\n(§9) were vortexed to mix and cell density in one control well was counted using a Coulter Z2 cell counter\n(§10) (Beckman Coulter). The volume of medium containing 2500 cells in the control well was calculated and this volume of cells was transferred from every well of the assay plates to the corresponding well of the fresh plates containing compound. After 14 days, CellTiter Glo reagent (Promega) was added to the medium in each well of the assay plate at a ratio of 1:2, mixed on a plate shaker, then incubated at room temperature for 10 minutes. Luminescence was measured using an Envision plate reader (Perkin Elmer) and the relative luminescence at each compound concentration, compared to DMSO alone, was calculated. GI50 were determined using a 4-parameter curve fit in Dotmatics (Bishops Stortford, UK)."}, "[1]": {"target": "BCL6 in OCI-Ly1 DLBCL xenograft (Homo sapiens, UniProt P41182)", "conditions": "single dose 50 mg/kg po", "description": "weighed and dosing volumes adjusted accordingly.\n7.3.2 Preparation of OCI-Ly1 xenograft model in mouse\nTwenty days post injection 24 tumour-bearing mice (between 0.4 and 0.6 cm3) were selected for the study\nMice were then grouped n=3 for the following time points: 12, 16 & 24 hours\nCompounds and vehicle were administered po (formulated as described in Supplementary experimental\nBlood (~1 mL) was taken from anaesthetized mice, via intracardiac puncture, using a 27 gauge needle and\na syringe pre-coated with heparin (200 Units/mL), The heparinized blood was microcentrifuged for 2\nminutes and ~200 uL of plasma was aspirated to a labelled tube, frozen on dry-ice and dedicated to\npharmacokinetic analysis (PK). Each tumour was excised, divided into two halves, weighed and then snap\nfrozen in liquid nitrogen, dedicating one half to PK analysis and the other half to pharmacodynamic analysis (PD). All frozen material was permanently stored in a -80°C freezer.\nTumours were lysed in lysis buffer (50 mM Tris-HCl, pH 7.4, 150 mM NaCl, 1% Triton X-100 (v/v), 1 mM PMSF, 1 mM activated sodium vanandate, 1 mM EDTA, phosphatase inhibitors 2 and 3 (1:50m dilution) and protease cocktail (1:100 dilution)) using reinforced homogenizing tubes containing metal beads using a Precellys 24 with cryolys cooling at 6000 rpm, 2 × 20 s (Stretton Scientific). Lysates were incubated on ice for 15 minutes, spun at 14000 rpm at 4 °C for 10 minutes and supernatants collected and aliquoted.\nSamples were stored at -80 °C until use. Protein concentration was determined by diluting 1:10 with lysis buffer and measuring on Direct Detect® spectrometer according to manufacturer’s instructions.\naccording to manufacturer’s instructions (ProteinSimple) with multiplexing BCL6 (CST14895 at 1:150\nData was analysed using Compass for SW software. BCL6 data was normalised to GAPDH and transferred to GraphPad Prism 7."}, "COX2": {"target": "COX2 (Homo sapiens, UniProt P35354)", "test": "SAFETYScan Non-Kinase Enzymes Enzymatic, Inhibitor", "format": "biochemical", "text": "(§1) Supplement jm1c02175_si_002.xlsx, sheet \"SAFETYScan\" | column: RC50 (uM); Max Response"}, "PDE4D2": {"target": "PDE4D2 (Homo sapiens, UniProt Q08499)", "test": "SAFETYScan Non-Kinase Enzymes Enzymatic, Inhibitor", "format": "biochemical", "text": "as §1"}, "PDE3A": {"target": "PDE3A (Homo sapiens, UniProt Q14432)", "sequence (Q14432 whole entry)": "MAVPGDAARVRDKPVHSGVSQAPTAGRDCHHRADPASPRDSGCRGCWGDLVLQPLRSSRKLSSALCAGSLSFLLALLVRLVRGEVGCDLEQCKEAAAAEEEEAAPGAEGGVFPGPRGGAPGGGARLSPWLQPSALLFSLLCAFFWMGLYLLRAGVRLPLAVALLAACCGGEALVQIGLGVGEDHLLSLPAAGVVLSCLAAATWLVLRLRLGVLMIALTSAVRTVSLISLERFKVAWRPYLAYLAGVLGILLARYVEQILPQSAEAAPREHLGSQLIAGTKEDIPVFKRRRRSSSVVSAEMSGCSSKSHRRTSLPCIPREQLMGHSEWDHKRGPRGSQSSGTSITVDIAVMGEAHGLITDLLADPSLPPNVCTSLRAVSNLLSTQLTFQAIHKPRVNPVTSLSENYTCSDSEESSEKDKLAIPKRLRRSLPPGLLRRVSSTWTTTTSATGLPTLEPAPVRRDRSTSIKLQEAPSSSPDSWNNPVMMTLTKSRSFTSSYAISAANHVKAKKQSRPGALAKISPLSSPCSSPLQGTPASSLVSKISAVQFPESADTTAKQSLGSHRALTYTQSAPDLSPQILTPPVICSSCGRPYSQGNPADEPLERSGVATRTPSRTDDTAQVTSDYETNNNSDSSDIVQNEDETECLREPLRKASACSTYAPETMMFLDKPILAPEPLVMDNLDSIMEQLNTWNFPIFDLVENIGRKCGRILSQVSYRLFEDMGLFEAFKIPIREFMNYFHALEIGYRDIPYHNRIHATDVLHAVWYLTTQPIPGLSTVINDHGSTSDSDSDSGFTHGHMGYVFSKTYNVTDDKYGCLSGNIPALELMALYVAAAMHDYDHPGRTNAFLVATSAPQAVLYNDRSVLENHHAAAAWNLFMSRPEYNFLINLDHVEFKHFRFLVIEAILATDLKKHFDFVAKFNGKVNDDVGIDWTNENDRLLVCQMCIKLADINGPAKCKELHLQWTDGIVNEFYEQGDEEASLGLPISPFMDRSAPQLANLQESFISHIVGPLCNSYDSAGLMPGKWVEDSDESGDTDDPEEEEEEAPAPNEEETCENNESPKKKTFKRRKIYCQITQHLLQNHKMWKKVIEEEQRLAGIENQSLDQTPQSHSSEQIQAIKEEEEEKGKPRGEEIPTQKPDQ", "test": "SAFETYScan Non-Kinase Enzymes Enzymatic, Inhibitor", "format": "biochemical", "text": "as §1"}, "AChE": {"target": "AChE (Homo sapiens, UniProt P22303)", "test": "SAFETYScan Non-Kinase Enzymes Enzymatic, Inhibitor", "format": "biochemical", "text": "as §1"}, "MAOA": {"target": "MAOA (Homo sapiens, UniProt P21397)", "sequence (P21397 whole entry)": "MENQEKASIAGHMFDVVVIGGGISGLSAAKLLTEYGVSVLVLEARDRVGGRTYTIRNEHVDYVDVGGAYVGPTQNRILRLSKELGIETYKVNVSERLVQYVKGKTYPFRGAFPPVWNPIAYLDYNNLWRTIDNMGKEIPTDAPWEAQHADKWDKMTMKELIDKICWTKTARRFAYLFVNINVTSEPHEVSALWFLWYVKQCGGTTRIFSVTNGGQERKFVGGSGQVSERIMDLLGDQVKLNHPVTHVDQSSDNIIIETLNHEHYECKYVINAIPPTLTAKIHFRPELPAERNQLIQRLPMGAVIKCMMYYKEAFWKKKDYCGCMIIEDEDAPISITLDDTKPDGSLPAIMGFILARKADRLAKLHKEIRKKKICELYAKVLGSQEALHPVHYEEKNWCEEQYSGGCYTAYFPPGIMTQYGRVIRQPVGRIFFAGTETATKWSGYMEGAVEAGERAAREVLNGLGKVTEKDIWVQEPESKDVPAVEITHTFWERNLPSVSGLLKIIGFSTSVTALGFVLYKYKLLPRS", "test": "SAFETYScan Non-Kinase Enzymes Enzymatic, Inhibitor", "format": "biochemical", "text": "as §1"}, "human BCL6 BTB domain [2]": {"target": "T1, human BCL6 BTB domain (Homo sapiens, UniProt P41182)", "test": "biochemical", "conditions": "BCL6 TR-FRET IC50 individual replicates, single replicate values", "description": "(§11) Assays were performed in a 384-well black Proxiplate (Perkin Elmer) containing 1 nM Trx-6xHis-BCL6 (in\n(§12) anti-6xHis-Terbium cryptate (CisBio Bioassays, France), in assay buffer (25 mM Hepes pH8, 100 mM NaCl,\n(§13) 0.05% Tween20, 0.5 mM TCEP, 0.05% bovine serum albumin). Test compounds in DMSO or DMSO alone\n(§14) were added to the wells using an ECHO550 acoustic dispenser (Labcyte Inc) to give the appropriate test\n(§15) concentration in 0.7% v/v DMSO final. After 2 hours incubation at room temperature the plate was read\n(§16) The % inhibition at each concentration was calculated by normalising FRET ratio to the\n(§17) appropriate high (DMSO with all reagents) and low (DMSO without BCL6) controls. IC50 values were\n(§18) determined using GraphPad Prism 6.0 or Dotmatics (Bishops Stortford, UK) software by fitting the\n(§19) normalised data to a sigmoidal four-parameter logistic fit equation."}, "SU-DHL-4": {"tested_on": "SU-DHL-4", "test": "Cell proliferation assay (14 days), SU-DHL-4", "description": "as §2, §3, §4, §5, §6, §7, §8, §9, §10"}, "hERG": {"target": "hERG (Homo sapiens, UniProt Q12809)", "sequence (Q12809 whole entry)": "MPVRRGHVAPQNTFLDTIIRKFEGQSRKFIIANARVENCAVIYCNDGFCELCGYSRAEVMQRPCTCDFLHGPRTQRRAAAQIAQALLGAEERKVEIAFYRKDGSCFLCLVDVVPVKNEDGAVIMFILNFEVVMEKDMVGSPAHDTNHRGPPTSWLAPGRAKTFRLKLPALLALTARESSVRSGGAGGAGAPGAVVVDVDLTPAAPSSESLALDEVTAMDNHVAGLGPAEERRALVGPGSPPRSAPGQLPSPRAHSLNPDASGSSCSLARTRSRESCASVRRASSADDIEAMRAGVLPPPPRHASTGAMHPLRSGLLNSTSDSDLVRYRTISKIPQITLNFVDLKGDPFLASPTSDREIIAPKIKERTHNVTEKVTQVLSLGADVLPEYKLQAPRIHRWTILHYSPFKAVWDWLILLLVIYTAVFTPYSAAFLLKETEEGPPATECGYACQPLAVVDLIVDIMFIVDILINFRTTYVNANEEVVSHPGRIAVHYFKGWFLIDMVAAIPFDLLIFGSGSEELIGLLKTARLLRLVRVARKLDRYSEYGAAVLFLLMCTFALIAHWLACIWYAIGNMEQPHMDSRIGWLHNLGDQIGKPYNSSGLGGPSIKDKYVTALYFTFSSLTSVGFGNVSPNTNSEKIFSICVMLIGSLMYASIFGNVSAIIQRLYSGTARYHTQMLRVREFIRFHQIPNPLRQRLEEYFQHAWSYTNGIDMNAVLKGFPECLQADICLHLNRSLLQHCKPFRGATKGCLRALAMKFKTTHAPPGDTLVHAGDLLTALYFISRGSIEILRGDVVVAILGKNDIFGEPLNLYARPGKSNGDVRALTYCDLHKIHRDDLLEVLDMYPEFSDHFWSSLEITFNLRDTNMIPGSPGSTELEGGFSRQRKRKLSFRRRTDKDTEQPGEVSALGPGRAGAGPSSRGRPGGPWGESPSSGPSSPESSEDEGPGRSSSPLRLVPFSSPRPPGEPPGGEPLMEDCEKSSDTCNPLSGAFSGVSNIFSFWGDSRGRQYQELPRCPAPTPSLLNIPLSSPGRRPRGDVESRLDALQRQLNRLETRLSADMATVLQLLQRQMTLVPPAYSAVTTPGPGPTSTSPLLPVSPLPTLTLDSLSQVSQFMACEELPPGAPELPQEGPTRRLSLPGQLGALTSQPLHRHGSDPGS", "test": "SAFETYScan Ion Channel, Blocker", "format": "cell-based", "text": "as §1"}, "KvLQT1/minK": {"target": "KvLQT1/minK (Homo sapiens, UniProt P51787)", "sequence (P51787 whole entry)": "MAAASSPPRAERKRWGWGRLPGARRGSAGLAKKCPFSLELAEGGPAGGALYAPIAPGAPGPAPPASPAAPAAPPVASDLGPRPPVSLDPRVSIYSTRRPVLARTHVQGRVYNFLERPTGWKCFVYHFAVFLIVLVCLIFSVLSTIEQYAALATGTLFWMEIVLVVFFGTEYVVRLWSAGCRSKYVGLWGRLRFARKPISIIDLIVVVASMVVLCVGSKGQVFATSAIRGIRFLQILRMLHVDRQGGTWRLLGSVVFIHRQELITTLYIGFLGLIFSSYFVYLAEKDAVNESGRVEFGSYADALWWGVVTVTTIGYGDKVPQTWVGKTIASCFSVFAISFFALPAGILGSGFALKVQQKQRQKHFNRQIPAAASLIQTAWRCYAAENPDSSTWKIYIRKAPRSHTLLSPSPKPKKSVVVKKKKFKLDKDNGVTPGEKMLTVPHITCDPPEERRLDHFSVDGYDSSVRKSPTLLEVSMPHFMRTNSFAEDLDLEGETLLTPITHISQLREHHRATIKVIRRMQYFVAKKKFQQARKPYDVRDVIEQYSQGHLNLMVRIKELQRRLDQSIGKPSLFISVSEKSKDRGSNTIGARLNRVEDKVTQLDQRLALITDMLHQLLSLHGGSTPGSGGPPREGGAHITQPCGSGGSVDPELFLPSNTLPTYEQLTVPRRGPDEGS", "test": "SAFETYScan Ion Channel, Blocker", "format": "cell-based", "text": "as §1"}, "GABAA": {"target": "GABAA (Homo sapiens, UniProt P14867+P18507+P47870)", "test": "SAFETYScan Ion Channel, Blocker", "format": "cell-based", "conditions": "read-out: Max Response", "text": "as §1"}, "NMDAR (1A/2B)": {"target": "NMDAR (1A/2B) (Homo sapiens, UniProt Q05586+Q13224)", "test": "SAFETYScan Ion Channel, Blocker", "format": "cell-based", "text": "as §1"}, "NAV1.5": {"target": "NAV1.5 (Homo sapiens, UniProt Q14524)", "test": "SAFETYScan Ion Channel, Blocker", "format": "cell-based", "text": "as §1"}, "HTR3A": {"target": "T2, HTR3A (Homo sapiens, UniProt P46098)", "T2 sequence (P46098 24-478)": "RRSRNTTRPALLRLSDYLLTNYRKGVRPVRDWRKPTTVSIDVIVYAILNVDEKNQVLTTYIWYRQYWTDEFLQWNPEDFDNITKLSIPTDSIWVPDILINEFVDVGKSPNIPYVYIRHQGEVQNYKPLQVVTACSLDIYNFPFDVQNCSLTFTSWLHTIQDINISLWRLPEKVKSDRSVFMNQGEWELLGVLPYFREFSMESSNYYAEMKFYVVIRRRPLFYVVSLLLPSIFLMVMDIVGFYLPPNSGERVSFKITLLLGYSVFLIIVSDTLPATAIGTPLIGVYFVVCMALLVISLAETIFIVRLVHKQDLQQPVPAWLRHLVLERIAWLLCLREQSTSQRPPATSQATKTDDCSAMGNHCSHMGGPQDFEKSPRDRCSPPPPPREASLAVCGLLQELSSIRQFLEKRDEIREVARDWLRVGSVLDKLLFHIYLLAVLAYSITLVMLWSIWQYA", "test": "SAFETYScan Ion Channel, Blocker", "format": "cell-based", "text": "as §1"}, "CAV1.2": {"target": "CAV1.2 (Homo sapiens, UniProt Q13936)", "test": "SAFETYScan Ion Channel, Blocker", "format": "cell-based", "text": "as §1"}, "nAChR(a4/b2)": {"target": "nAChR(a4/b2) (Homo sapiens, UniProt P17787+P43681)", "sequence (P43681 29-627 limits assumed)": "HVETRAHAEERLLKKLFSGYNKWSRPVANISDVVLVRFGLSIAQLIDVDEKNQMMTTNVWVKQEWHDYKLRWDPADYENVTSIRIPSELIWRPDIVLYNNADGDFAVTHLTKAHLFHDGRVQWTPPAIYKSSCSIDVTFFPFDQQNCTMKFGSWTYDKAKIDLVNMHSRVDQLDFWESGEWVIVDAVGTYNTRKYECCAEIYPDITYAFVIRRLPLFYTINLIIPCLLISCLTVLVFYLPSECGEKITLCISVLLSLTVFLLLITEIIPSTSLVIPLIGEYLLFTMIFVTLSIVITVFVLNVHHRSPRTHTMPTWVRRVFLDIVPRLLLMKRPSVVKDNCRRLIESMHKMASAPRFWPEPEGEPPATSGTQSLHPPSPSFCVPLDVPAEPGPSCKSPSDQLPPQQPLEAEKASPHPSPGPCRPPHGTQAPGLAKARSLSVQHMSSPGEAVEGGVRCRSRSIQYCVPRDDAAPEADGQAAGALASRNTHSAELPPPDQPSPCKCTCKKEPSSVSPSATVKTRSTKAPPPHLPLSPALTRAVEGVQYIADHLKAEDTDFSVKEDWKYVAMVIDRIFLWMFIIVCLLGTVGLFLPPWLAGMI", "sequence (P17787 26-502)": "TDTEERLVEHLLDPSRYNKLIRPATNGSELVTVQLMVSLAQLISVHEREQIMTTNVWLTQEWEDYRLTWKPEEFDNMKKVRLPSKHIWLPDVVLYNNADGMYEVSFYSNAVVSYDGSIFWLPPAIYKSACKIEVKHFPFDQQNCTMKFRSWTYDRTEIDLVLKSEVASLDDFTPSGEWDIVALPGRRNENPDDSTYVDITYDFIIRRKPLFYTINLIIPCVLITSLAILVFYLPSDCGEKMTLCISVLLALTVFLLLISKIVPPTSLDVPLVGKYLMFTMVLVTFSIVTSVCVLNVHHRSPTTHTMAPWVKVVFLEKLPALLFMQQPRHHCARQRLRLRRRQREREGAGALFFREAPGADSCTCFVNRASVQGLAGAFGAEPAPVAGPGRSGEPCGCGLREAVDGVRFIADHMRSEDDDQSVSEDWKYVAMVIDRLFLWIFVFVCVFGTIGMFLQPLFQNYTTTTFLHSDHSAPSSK", "test": "SAFETYScan Ion Channel, Blocker", "format": "cell-based", "text": "as §1"}, "human BCL6 BTB domain [3]": {"target": "T1, human BCL6 BTB domain", "description": "as §11, §12, §13, §14, §15, §16, §17, §18, §19"}, "HT DLBCL xenograft": {"tested_on": "HT DLBCL xenograft", "test": "Efficacy study in HT DLBCL xenograft model", "format": "in vivo, mouse", "protocol": "single treatment of vehicle.\n7.3.3 Preparation of HT Cells […]\nsubcultured 1:4 every 3-4 days. […]\npharmacokinetic analysis (PK).\n7.3.6 Tumour lysis and Wes method\nLysates were incubated on\nSamples were stored at -80 °C until use.\nData was analysed using Compass for SW software. BCL6"}, "[4]": {"test": "Linearity PK studies in SCID mice", "conditions": "solution formulation"}}, "note": "pIC50: −log10 of the molar value. Values joined by “and” are separate entries in the source; they are usually repeats but may differ in a detail not shown here. Equal entries are not always repeated. Where two headings read alike, the source gives them in different places."}
{"smiles": "C[C@H]1C[C@@H](O)CN(c2ncc(Cl)c(Nc3ccc4c(c3)c3c(c(=O)n4C)OCC(F)(F)[C@H](C4CC4)N3)n2)C1", "note": "[12a CCT373566, (S)-10-((5-Chloro-2-((3R,5S)-3-hydroxy-5-methylpiperidin-1-yl)pyrimidin-4-yl)amino)-2-cyclopropyl-3,3-difluoro-7-methyl-1,2,3,4-tetrahydro-[1,4]oxazepino[2,3-c]quinolin-6(7H)-one]", "values": [{"measurement": "HT GI50", "setting": "HT; 14-day proliferation assay", "value": "Very potent growth inhibition"}, {"measurement": "GI50", "setting": "HT; Homo sapiens, HT, 336 h, read-out: HT GI50", "value": 0.008, "unit": "µM"}, {"measurement": "adverse events", "setting": "[1]; OCI-Ly1 xenograft SCID mice", "value": "No visible adverse events were observed"}, {"measurement": "tumor concentrations versus plasma concentrations", "setting": "[1]; 12, 16, 24 h", "value": "lower than plasma concentrations at all time points"}, {"measurement": "BCL6 levels in tumor", "setting": "[1]; 12, 16 and 24 h after dosing", "value": "significantly decreased at all time points"}, {"measurement": "Emax", "setting": "COX2; read-out: Max Response", "value": 0, "unit": "%"}, {"measurement": "pIC50", "setting": "COX2; read-out: RC50 (IC50)", "value": "< 5.00"}, {"measurement": "Emax", "setting": "PDE4D2; read-out: Max Response", "value": 10.8, "unit": "%"}, {"measurement": "pIC50", "setting": "PDE4D2; read-out: RC50 (IC50)", "value": "< 5.00"}, {"measurement": "Emax", "setting": "PDE3A; read-out: Max Response", "value": 0.2, "unit": "%"}, {"measurement": "pIC50", "setting": "PDE3A; read-out: RC50 (IC50)", "value": "< 5.00"}, {"measurement": "Emax", "setting": "AChE; read-out: Max Response", "value": 3.36, "unit": "%"}, {"measurement": "pIC50", "setting": "AChE; read-out: RC50 (IC50)", "value": "< 5.00"}, {"measurement": "Emax", "setting": "MAOA; read-out: Max Response", "value": 0, "unit": "%"}, {"measurement": "pIC50", "setting": "MAOA; read-out: RC50 (IC50)", "value": "< 5.00"}, {"measurement": "IC50", "setting": "human BCL6 BTB domain [2]", "value": "3.8 nM and 1.9 nM and 1.7 nM and 2.6 nM (3×) and 2.4 nM and 2.9 nM and 1.8 nM (3×) and 1.2 nM and 2.7 nM"}, {"measurement": "SU-DHL-4 GI50", "setting": "SU-DHL-4; 14-day proliferation assay", "value": "Very potent growth inhibition"}, {"measurement": "GI50", "setting": "SU-DHL-4; Homo sapiens, SU-DHL-4, 336 h, read-out: SU-DHL-4 GI50", "value": 0.0125, "unit": "µM"}, {"measurement": "Emax", "setting": "hERG; human, read-out: Max Response", "value": 93, "unit": "%"}, {"measurement": "pIC50", "setting": "hERG; read-out: RC50 (IC50)", "value": 5.84}, {"measurement": "Emax", "setting": "KvLQT1/minK; read-out: Max Response", "value": 13.1, "unit": "%"}, {"measurement": "pIC50", "setting": "KvLQT1/minK; read-out: RC50 (IC50)", "value": "< 5.00"}, {"measurement": "Emax", "setting": "GABAA", "value": 1.51, "unit": "%"}, {"measurement": "Emax", "setting": "NMDAR (1A/2B); read-out: Max Response", "value": 0, "unit": "%"}, {"measurement": "pIC50", "setting": "NMDAR (1A/2B); read-out: RC50 (IC50)", "value": "< 5.00"}, {"measurement": "Emax", "setting": "NAV1.5; read-out: Max Response", "value": 1.35, "unit": "%"}, {"measurement": "pIC50", "setting": "NAV1.5; read-out: RC50 (IC50)", "value": "< 5.00"}, {"measurement": "Emax", "setting": "HTR3A; read-out: Max Response", "value": 15, "unit": "%"}, {"measurement": "pIC50", "setting": "HTR3A; read-out: RC50 (IC50)", "value": "< 5.00"}, {"measurement": "Emax", "setting": "CAV1.2; read-out: Max Response", "value": 0, "unit": "%"}, {"measurement": "pIC50", "setting": "CAV1.2; read-out: RC50 (IC50)", "value": "< 5.00"}, {"measurement": "Emax", "setting": "nAChR(a4/b2); read-out: Max Response", "value": 7.49, "unit": "%"}, {"measurement": "pIC50", "setting": "nAChR(a4/b2); read-out: RC50 (IC50)", "value": "< 5.00"}, {"measurement": "BCL6 TR-FRET pIC50 mean", "setting": "human BCL6 BTB domain [3]; mean of replicates", "value": 8.6638}, {"measurement": "IC50", "setting": "human BCL6 BTB domain [3]; read-out: BCL6 TR-FRET IC50 individual replicates, single replicate values", "value": "2.3 nM (3×) and 2.1 nM (3×)"}, {"measurement": "T/C", "setting": "HT DLBCL xenograft; 50 mg/kg BID, 22 days", "value": 60, "unit": "%"}, {"measurement": "BCL6 levels after the last dose", "setting": "HT DLBCL xenograft; 50 mg/kg po bid for 22 days, 4 h and 12 h after last dose", "value": "remained decreased 4 h and 12 h after the last dose"}, {"measurement": "body weight", "setting": "HT DLBCL xenograft; 50 mg/kg po bid, 22 days", "value": "No body weight losses were observed"}, {"measurement": "tumor growth compared to the vehicle control group", "setting": "HT DLBCL xenograft; 50 mg/kg po bid, 22 days", "value": "modest decrease in tumor growth"}, {"measurement": "exposure versus dose", "setting": "[4]", "value": "exposure increased with the dose"}]}
